# Assay results taken from US6706663B2, “Herbicidal 3-heterocyclic substituted benzisothiazole and benzisoxazole compounds” (Wyeth, priority 2000, dated 2004).
# How the values were obtained:
# [1] = system: GALAP (Galium aparine); assay: Preemergence herbicidal evaluation; format: in vivo; settings: preemergence, rated 4-5 weeks after treatment
# Summary of the method: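 Visual 0-9 rating versus untreated control, taken four to five weeks post-treatment, scoring stand, vigor, malformation, size, chlorosis and overall appearance. Compound applied as aqueous acetone spray to freshly seeded soil cups, then kept under standard greenhouse care.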
# [2] = system: ECHORC (Echinochloa oryzoides); assay: Flooded paddy, preemergence weed control; format: in vivo, Echinochloa oryzoides (Ard.) Fritsch.; settings: rated 3-4 weeks after treatment, 0-9 rating scale
# Summary of the method: (§1)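 Seeds or propagules were planted in the top 0.5 cm of silt loam soil and kept flooded 1.5–3 cm above the surface throughout, then held in the greenhouse. Injury was rated visually on a 0–9 scale against untreated controls, covering stand, vigor, malformation, size and chlorosis.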
# [3] = system: ZEAMX (Corn, Field); assay: Postemergence herbicidal evaluation; format: in vivo, Zea mays, L.
# Summary of the method: (§2)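 Visual 0–9 injury scores versus control plants, covering stand, vigour, malformation, size, chlorosis and general appearance, taken four to five weeks post-spray and averaged over replicate tests. Plants were sprayed at roughly two weeks old and held on greenhouse benches.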
# [4] = system: SAGPY (Sagittaria pygmaea); assay: Flooded paddy, preemergence weed control; format: in vivo, L.; settings: rated 3-4 weeks after treatment, 0-9 rating scale
# Summary of the method: as §1
# [5] = system: CYPSE (Cyperus serotinus); assay: Flooded paddy, postemergence weed control; format: in vivo, Rottb.; settings: postemergence weeds, rated 3-4 weeks after treatment
# From the text: (§3) Results of herbicide evaluation are expressed on a rating scale (0-9). The scale is based upon a visual observation of plant stand, vigor, malformation, size, chlorosis and overall plant appearance as compared with a control.
# (§4) Plastic containers containing weeds which are 3 to 5 cm tall and rice seedlings at the 1.5 to 2.5 leaf stage are flooded with water. The water is maintained at 1.5 to 3 cm above the soil surface for the duration of the experiment. Test compounds are applied as aqueous/acetone mixtures 50/50 v/v directly into the flood water to provide the equivalent of about 0.0320 to 0.2500 kg/ha of active ingredient. The treated containers are placed on greenhouse benches and cared for in accordance with conventional greenhouse procedures. Three to four weeks after treatment, the test is terminated and each container is examined and herbicidal effect rated according to the rating system provided in Example 87. The compounds evaluated are identified in Example 87 and plant species used are identified in Example 89.
# [6] = system: TRZAWR (Wheat, Winter, cv Riband); assay: Postemergence herbicidal evaluation; format: in vivo, Triticum aestivum
# Summary of the method: as §2
# [7] = system: CYPSE (Cyperus serotinus); assay: Flooded paddy, preemergence weed control; format: in vivo, Rottb.; settings: rated 3-4 weeks after treatment, 0-9 rating scale
# Summary of the method: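 Herbicidal effect was scored visually on a 0–9 scale against an untreated control 3–4 weeks after treatment. Compounds were applied preemergence as 50/50 v/v aqueous/acetone mixtures into flood water (1.5–3 cm deep over silt loam), at roughly 0.0080 to 0.1250 kg/ha active ingredient.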
# [8] = system: ORYSAT (Rice, Tebonnet); assay: Preemergence herbicidal evaluation; format: in vivo, Oryza sativa, (L.) Tebonnet; settings: preemergence, rated 4-5 weeks after treatment
# [9] = system: ECHCG (Echinochloa crus-galli); assay: Postemergence herbicidal evaluation; format: in vivo, (L.) Beau
# Summary of the method: as §2
# [10] = system: MOOVA (Monochoria vaginalis); assay: Flooded paddy, postemergence weed control; format: in vivo, Presl.; settings: postemergence weeds, rated 3-4 weeks after treatment
# From the text: as §3, §4
# [11] = system: ORYSAT (Rice, Tebonnet); assay: Flooded paddy, post-transplant and postemergence rice tolerance; format: in vivo, Oryza sativa, (L.) Tebonnet; settings: post-transplant rice, rated 3-4 weeks after treatment
# From the text: as §3, §4
# [12] = system: SAGPY (Sagittaria pygmaea); assay: Flooded paddy, postemergence weed control; format: in vivo, L.; settings: postemergence weeds, rated 3-4 weeks after treatment
# From the text: as §3, §4
# [13] = system: SETVI (Setaria viridis); assay: Postemergence herbicidal evaluation; format: in vivo, (L.) Beau
# Summary of the method: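 Seedlings grown about two weeks were sprayed with compound in 50/50 acetone/water containing 0.5% TWEEN 20, at about 0.0040 to 1.000 kg/ha via nozzle at 40 psi. Plants were kept under greenhouse conditions and visually rated on a 0-9 scale versus control four to five weeks after treatment; replicate tests averaged.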
# [14] = system: ECHORC (Echinochloa oryzoides); assay: Flooded paddy, postemergence weed control; format: in vivo, Echinochloa oryzoides (Ard.) Fritsch.; settings: postemergence weeds, rated 3-4 weeks after treatment
# From the text: as §3, §4
# [15] = system: GALAP (Galium aparine); assay: Postemergence herbicidal evaluation; format: in vivo
# Summary of the method: as §2
smiles,measurement,setting,value
"Cc1ccc(-c2nsc3ccc(-n4c(=O)cc(C(F)(F)F)n(C)c4=O)cc23)s1 [Compound 21, 1-methyl-3-[3-(5-methyl-2-thienyl)-1,2-benzisothiazol-5-yl]-6-(trifluoromethyl)uracil]",GALAP preemergence herbicidal rating,[1]; Rate 0.0620 kg/ha,3.0
same,GALAP preemergence herbicidal rating,[1]; Rate 0.1250 kg/ha,2.0
same,GALAP preemergence herbicidal rating,[1]; Rate 0.2500 kg/ha,9.0
same,"herbicidal rating, ECHORC",[2]; rate 0.0080 kg/ha,4.0
same,"herbicidal rating, ECHORC",[2]; rate 0.0320 kg/ha,8.5
same,"herbicidal rating, ECHORC",[2]; rate 0.1250 kg/ha,9.0
same,"Postemergence herbicidal rating, ZEAMX",[3]; rate 0.0320 kg/ha,5.0
same,"Postemergence herbicidal rating, ZEAMX",[3]; rate 0.0620 kg/ha,5.5
same,"Postemergence herbicidal rating, ZEAMX",[3]; rate 0.1250 kg/ha,5.5
same,"herbicidal rating, SAGPY",[4]; rate 0.0080 kg/ha,0.0
same,"herbicidal rating, SAGPY",[4]; rate 0.0320 kg/ha,0.0
same,"herbicidal rating, SAGPY",[4]; rate 0.1250 kg/ha,6.0
same,herbicide rating (0-9) CYPSE,[5]; 0.0320 kg/ha into flood water,0.0
same,herbicide rating (0-9) CYPSE,[5]; 0.0620 kg/ha into flood water,0.0
same,herbicide rating (0-9) CYPSE,[5]; 0.1250 kg/ha into flood water,0.0
same,"Postemergence herbicidal rating, TRZAWR",[6]; rate 0.0320 kg/ha,4.0
same,"Postemergence herbicidal rating, TRZAWR",[6]; rate 0.0620 kg/ha,4.5
same,"Postemergence herbicidal rating, TRZAWR",[6]; rate 0.1250 kg/ha,4.5
same,"herbicidal rating, CYPSE",[7]; rate 0.0080 kg/ha,0.0
same,"herbicidal rating, CYPSE",[7]; rate 0.0320 kg/ha,4.5
same,"herbicidal rating, CYPSE",[7]; rate 0.1250 kg/ha,4.5
same,ORYSAT preemergence herbicidal rating,[8]; Rate 0.0620 kg/ha,0.0
same,ORYSAT preemergence herbicidal rating,[8]; Rate 0.1250 kg/ha,0.5
same,ORYSAT preemergence herbicidal rating,[8]; Rate 0.2500 kg/ha,3.5
same,"Postemergence herbicidal rating, ECHCG",[9]; rate 0.0320 kg/ha,4.0
same,"Postemergence herbicidal rating, ECHCG",[9]; rate 0.0620 kg/ha,4.0
same,"Postemergence herbicidal rating, ECHCG",[9]; rate 0.1250 kg/ha,4.0
same,herbicide rating (0-9) MOOVA,[10]; 0.0320 kg/ha into flood water,9.0
same,herbicide rating (0-9) MOOVA,[10]; 0.0620 kg/ha into flood water,9.0
same,herbicide rating (0-9) MOOVA,[10]; 0.1250 kg/ha into flood water,9.0
same,herbicide rating (0-9) ORYSAT (rice tolerance),[11]; 0.0320 kg/ha into flood water,4.0
same,herbicide rating (0-9) ORYSAT (rice tolerance),[11]; 0.0620 kg/ha into flood water,7.0
same,herbicide rating (0-9) ORYSAT (rice tolerance),[11]; 0.1250 kg/ha into flood water,7.0
same,herbicide rating (0-9) SAGPY,[12]; 0.0320 kg/ha into flood water,0.0
same,herbicide rating (0-9) SAGPY,[12]; 0.0620 kg/ha into flood water,0.0
same,herbicide rating (0-9) SAGPY,[12]; 0.1250 kg/ha into flood water,0.0
same,"Postemergence herbicidal rating, SETVI",[13]; rate 0.0320 kg/ha,2.0
same,"Postemergence herbicidal rating, SETVI",[13]; rate 0.0620 kg/ha,7.0
same,"Postemergence herbicidal rating, SETVI",[13]; rate 0.1250 kg/ha,9.0
same,herbicide rating (0-9) ECHORC,[14]; 0.0320 kg/ha into flood water,6.0
same,herbicide rating (0-9) ECHORC,[14]; 0.0620 kg/ha into flood water,9.0
same,herbicide rating (0-9) ECHORC,[14]; 0.1250 kg/ha into flood water,9.0
same,"Postemergence herbicidal rating, GALAP",[15]; rate 0.0320 kg/ha,1.0
same,"Postemergence herbicidal rating, GALAP",[15]; rate 0.0620 kg/ha,4.0
same,"Postemergence herbicidal rating, GALAP",[15]; rate 0.1250 kg/ha,9.0
